Counter-ions that a name gives are not always drawn. Like-named read-outs stand apart in the source and are kept apart here.
Columns and labels:
Experiment in all cases: MIC, agar dilution
Type in all cases: cell-based
Proteus rettgeri, 8479 = conditions: Providencia rettgeri, K-10 agar, 10^4 CFU, 37°C, 18 hours, read-out: M.I.C.
In short: (§1)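 Agar dilution in K-10 agar; final drug 100–0.05 µg/ml, twofold steps. Inoculum 10^4 CFU/spot via multipoint inoculator from 18–20 h broth culture diluted 1:100. Incubation 37°C, 18 h; MIC = lowest concentration with no growth.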

[1] = test system: Klebsiella aerogenes, 10440; conditions: K-10 agar, 10^4 CFU, 37°C, 18 hours, read-out: M.I.C.
In short: as §1

[2] = test system: Staphylococcus aureus, 10165; conditions: Staphylococcus aureus, 10165; K-10 agar, 10^4 CFU, 37°C, 18 hours; read-out: M.I.C.
In short: as §1

[3] = test system: Klebsiella pneumoniae, 9527; conditions: Klebsiella pneumoniae, 9527, 18 h, K-10 agar, 10^4 CFU, 37°C, read-out: M.I.C.
In short: as §1

[4] = test system: Pseudomonas aeruginosa, 9545; conditions: Pseudomonas aeruginosa, 9545, 18 h, K-10 agar, 10^4 CFU, 37°C, read-out: M.I.C.
In short: as §1

[5] = test system: Citrobacter freundii, 9518; conditions: K-10 agar, 10^4 CFU, 37°C, 18 hours, read-out: M.I.C.
In short: as §1

Proteus vulgaris, 9416 = conditions: K-10 agar, 10^4 CFU, 37°C
In short: as §1

[6] = test system: Enterobacter aerogenes, 10078; conditions: Klebsiella aerogenes, 10078, 18 h, Enterobacter aerogenes, 10078; K-10 agar, 10^4 CFU, 37°C, 18 hours; read-out: M.I.C.
In short: as §1

[7] = test system: Staphylococcus aureus, 2399; conditions: Staphylococcus aureus, 2399, 18 h, Staphylococcus aureus, 2399; K-10 agar, 10^4 CFU, 37°C, 18 hours; read-out: M.I.C.
In short: as §1

Proteus mirabilis, 3855 = conditions: Proteus mirabilis, 3855, 18 h, K-10 agar, 10^4 CFU, 37°C
In short: as §1

Escherichia coli, 10909 = conditions: K-10 agar, 10^4 CFU, 37°C, 18 hours
In short: as §1

[8] = test system: Staphylococcus aureus, 1276; conditions: Staphylococcus aureus, 1276; K-10 agar, 10^4 CFU, 37°C, 18 hours; read-out: M.I.C.
In short: as §1

[9] = test system: Streptococcus faecalis, 9011; conditions: Enterococcus faecalis; Streptococcus faecalis, 9011; K-10 agar, 10^4 CFU, 37°C, 18 hours; read-out: M.I.C.
In short: as §1

Shigella sonnei, 8449 = conditions: Shigella sonnei, 8449, 18 h, K-10 agar, 10^4 CFU, 37°C
In short: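 MIC, the lowest compound concentration preventing visible growth, is read after plates incubate 18 h at 37°C. Plates hold K-10 agar with twofold drug dilutions spanning 100 to 0.05 µg/ml, each spot-inoculated with 10^4 CFU.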

[10] = test system: Pseudomonas aeruginosa, 8329; conditions: K-10 agar, 10^4 CFU, 37°C, 18 hours, read-out: M.I.C.
In short: as §1

[11] = test system: Staphylococcus aureus, 2400; conditions: Staphylococcus aureus, 2400; K-10 agar, 10^4 CFU, 37°C, 18 hours; read-out: M.I.C.
In short: as §1

Escherichia coli, 10896 = conditions: K-10 agar, 10^4 CFU, 37°C, 18 hours
In short: as §1

Escherichia coli, 10857 = conditions: Escherichia coli, 10857, 18 h, K-10 agar, 10^4 CFU, 37°C
In short: as §1

Salmonella typhosa, 1195 = conditions: Salmonella enterica, TYPHOSA, 18 h, K-10 agar, 10^4 CFU, 37°C
In short: as §1

[12] = test system: Serratia marcescens, 9783; conditions: K-10 agar, 10^4 CFU, 37°C; for MIC: Serratia marcescens, 9783, 18 h, read-out: M.I.C.
In short: as §1

Escherichia coli, 8294 = conditions: Escherichia coli, 8294, 18 h, K-10 agar, 10^4 CFU, 37°C
In short: as §1

[13] = test system: Acinetobacter calcoaceticus, 8333; conditions: Acinetobacter calcoaceticus, 8333, 18 h, K-10 agar, 10^4 CFU, 37°C, read-out: M.I.C.
In short: as §1

[14] = test system: Enterobacter cloacae, 8236; conditions: Enterobacter cloacae, 8236, 18 h, K-10 agar, 10^4 CFU, 37°C
In short: (§2)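 Broth cultures grown 18-20 h at 37°C, diluted 1:100 in K-10 broth, applied by multipoint inoculator at 10^4 CFU onto K-10 agar holding twofold compound dilutions, 100 to 0.05 µg/ml final. MIC taken as lowest concentration inhibiting growth.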

[15] = test system: Streptococcus agalactiae, 9287; conditions: Streptococcus agalactiae, 9287, 18 h, K-10 agar, 10^4 CFU, 37°C, read-out: M.I.C.
In short: as §2

Micrococcus luteus, 2495 = conditions: K-10 agar, 10^4 CFU, 37°C; for MIC: Micrococcus luteus, 2495, 18 h, read-out: M.I.C.
In short: as §2

| Structure (SMILES) | MIC (Proteus rettgeri, 8479) [µg/mL] | MIC [1] [µg/mL] | MIC [2] [µg/mL] | MIC [3] [µg/mL] | MIC [4] [µg/mL] | MIC [5] [µg/mL] | MIC [6] [µg/mL] | MIC [7] [µg/mL] | MIC (Escherichia coli, 10909) [µg/mL] | MIC [8] [µg/mL] | MIC [9] [µg/mL] | MIC (Shigella sonnei, 8449) [µg/mL] | MIC [10] [µg/mL] | MIC [11] [µg/mL] | MIC (Escherichia coli, 10896) [µg/mL] | MIC (Escherichia coli, 10857) [µg/mL] | MIC (Salmonella typhosa, 1195) [µg/mL] | MIC (Escherichia coli, 8294) [µg/mL] | MIC [13] [µg/mL] | MIC [14] [µg/mL] | further results |
| --- | --- | --- | --- | --- | --- | --- | --- | --- | --- | --- | --- | --- | --- | --- | --- | --- | --- | --- | --- | --- | --- |
| CO/N=C(\C(=O)NC1C(=O)N(S(=O)(=O)O)C1(C)C)c1csc(N)n1 (racemic) [Example 25, [3±(Z)]-3-[[(2-Amino-4-thiazolyl) (methoxyimino)-acet^yl]amino]-4,4-dimethyl-2-oxo-1-azetidinesulfonic acid, potassium salt] | 0.8 | 100 | > 100 | 6.3 | > 100 | 25 | 100 | > 100 | 25 | > 100 | > 100 | 25 | > 100 | > 100 | 25 | 6.3 | 12.5 | 50 | > 100 | 100 | MIC (Proteus vulgaris, 9416; Proteus vulgaris, 9416, 18 h): 12.5 µg/mL; MIC (Proteus mirabilis, 3855): 12.5 µg/mL; MIC [12]: 100 µg/mL; MIC [15]: > 100 µg/mL; MIC (Micrococcus luteus, 2495): > 100 µg/mL |
| C[C@H]1[C@H](NC(=O)C(=O)c2csc(N)n2)C(=O)N1S(=O)(=O)O [Example 27, (3S-trans)-3-[[(2-Amino-4-thiazolyl)oxoacetyl]-amino]-4-methyl-2-oxo-1-azetidinesulfonic acid, potassium salt] | 0.4 | 6.3 | > 100 | 6.3 | 50 | 3.1 | 6.3 | > 100 | 1.6 | > 100 | > 100 | 3.1 | > 100 | > 100 | 3.1 | 3.1 | 3.1 | 6.3 | > 100 | 3.1 | MIC (Proteus vulgaris, 9416; 18 hours, read-out: M.I.C.): 6.3 µg/mL; MIC (Proteus mirabilis, 3855; read-out: M.I.C.): 3.1 µg/mL; MIC [12]: 3.1 µg/mL; MIC [15]: 12.5 µg/mL; MIC (Micrococcus luteus, 2495): 100 µg/mL |
| CON=C(C(=O)NC1C(=O)N(S(=O)(=O)O)C1C)c1csc(N)n1 (stereo not drawn) [Example 5, [3S-[3α(Z),4β]]-3-[[2-Amino-4-thiazolyl) (methoxyimino)-acetyl]amino]-4-methyl-2-oxo-1-azetidinesulfonic acid, potassium salt] | < 0.05 | 0.2 | > 100 | 0.1 | 0.8 | 0.1 | 0.4 | 100 | < 0.05 | 100 | > 100 | 0.1 | 100 | 50 | 0.1 | < 0.05 | < 0.05 | 0.1 | 12.5 | 0.2 | MIC (Proteus vulgaris, 9416; 18 hours, read-out: M.I.C.): < 0.05 µg/mL; MIC (Proteus mirabilis, 3855; read-out: M.I.C.): 0.1 µg/mL; M.I.C. ([12]; 18 hours, potassium salt): 0.8 µg/mL; MIC [15]: 3.1 µg/mL; M.I.C. (Micrococcus luteus, 2495; 18 hours, potassium salt): 3.1 µg/mL |
| CON=C(C(=O)NC1C(=O)N(S(=O)(=O)O)C1C)c1csc(N)n1 (racemic) [Example 7, [3α(Z),4α]-3-[[(2-Amino-4-thiazolyl) (methoxy-imino)acetyl]amino]-4-methyl-2-oxo-l-azetidinesulfonic acid, potassium salt] | < 0.05 | 0.4 | > 100 | 0.1 | 0.8 | 0.2 | 0.4 | 100 | 0.1 | 100 | > 100 | 0.2 | > 100 | 50 | 0.2 | < 0.05 | < 0.05 | 0.2 | 50 | 0.2 | MIC (Proteus vulgaris, 9416; 18 hours, read-out: M.I.C.): < 0.05 µg/mL; MIC (Proteus mirabilis, 3855; read-out: M.I.C.): < 0.05 µg/mL; MIC [12]: 0.4 µg/mL; MIC [15]: 3.1 µg/mL; MIC (Micrococcus luteus, 2495): 6.3 µg/mL |
| CCN1CCN(C(=O)NC(C(=O)NC2C(=O)N(S(=O)(=O)O)C2C)c2ccccc2)C(=O)C1=O (stereo not drawn) [Example 12, [3S-[3α(R*),4β]]-3-[[[[(4-ethyl-2,3-dioxo-1-piperazinyl)carbonyl]amino]phenylacetyl]-amino]-4-methyl-2-oxo-1-azetidinesulfonic acid, potassium salt] | 0.4 | 1.6 | > 100 | 0.1 | 0.8 | 1.6 | 3.1 | 50 | 0.1 | 25 | > 100 | 0.8 | 12.5 | 50 | 1.6 | < 0.05 | 0.2 | 1.6 | 12.5 | 1.6 | MIC (Proteus vulgaris, 9416; 18 hours, read-out: M.I.C.): < 0.05 µg/mL; MIC (Proteus mirabilis, 3855; read-out: M.I.C.): 0.4 µg/mL; MIC [12]: 1.6 µg/mL; MIC [15]: 6.3 µg/mL; MIC (Micrococcus luteus, 2495): 6.3 µg/mL |
| C[C@H]1[C@H](NC(=O)Cc2ccccc2)C(=O)N1S(=O)(=O)O [Example 3, (3S-trans)-4-Methyl-2-oxo-3-[(phenylacetyl)amino]-1-azetidinesulfonic acid, potassium salt] | 50 | 100 | 100 | 100 | 50 | 100 | > 100 | 50 | 25 | 50 | > 100 | 50 | > 100 | 50 | 50 | 50 | 50 | 100 | > 100 | > 100 | MIC (Proteus vulgaris, 9416; 18 hours, read-out: M.I.C.): 100 µg/mL; MIC (Proteus mirabilis, 3855; read-out: M.I.C.): 100 µg/mL; MIC [12]: 50 µg/mL; MIC [15]: 25 µg/mL; MIC (Micrococcus luteus, 2495): 25 µg/mL |

— patent EP0187355A1, “Process for preparing beta-lactam antibiotics” (E.R. Squibb & Sons, Inc., priority 1981, dated 1982)
